Measured values from US20110281933A1, “METHODS AND COMPOSITIONS FOR THE MANAGEMENT OF CARDIOVASCULAR DISEASE WITH OLIGONUCLEOTIDES” (Saint Louis University, priority 2010, published 2011).

How the values were obtained:
miR-33 [1] = assay: Silencing miR-33 rescues liver damage induced by simvastatin and cholate diet (Example 9); assay type: in vivo, mice
Excerpt: Samples were collected after 7 days on the diet, or when mice appeared moribund. […] (B) Percentage of body weight, compared to the initial mass of each animal. Data are shown as mean±SD. (C) Macroscopic appearance of livers. (D) Liver to total body mass ratios. […] (E) Appearance of plasma. […] (G) Relative expression of hepatic canalicular transporters (upper panel) and other genes involved in bile acid and sterol homeostasis (bottom panel).
(§1) RNA and protein analysis. RNA was isolated from cells with Trizol reagent, using a slight modification of the manufacturer's protocol to preserve miRNAs. Briefly, following homogenization in 2 mL of Trizol, […] of chloroform and […] if 2 mol/L sodium acetate pH 4.2 were added before the separation of the organic and aqueous phases. The latter was combined with […] of acid phenol:chloroform:[…], and centrifuged again. RNAs in the aqueous phase was then precipitated with 3 mL of ethanol overnight at 4° C. After centrifugation, the RNA pellet was resuspended in water and stored at −80° C. until use. Alternatively, RNAs were isolated using the mirVana miRNA Isolation Kit (Ambion). cDNAs were generated from 5 μg of DNase1-treated RNA using Superscript III and Random hexamers (Invitrogen). Real-time PCR was done with Sybr green reagent (Roche), using a LightCycler 480 real-time PCR detection system (Roche). Values were normalized to GAPDH and calculated using the comparative CT method. Protein levels were determined by Western blot, using 50 ug total liver protein extract, and a 1:1,000 dilution of anti-ABCA1 antibody (Novus Biologicals), following standard protocols.
Murine Studies. Male C57Bl/6J mice were obtained from Jackson Laboratories, and maintained in a 12 hour/12 hour light/dark cycle with unlimited access to chow and water. […] Blood was collected 5 days post-infusion, and total cholesterol and HDL-cholesterol were assayed enzymatically with the Cholesterol E and HDL-cholesterol E kits from Waco Chemicals. […] Tissues and bile were collected following overnight fasting. RCT experiments were performed as described 28. Briefly, mice were injected i.v. with oligonucleotides (5 mpk) twice for 2 weeks, and then injected i.p. with 1-1.5×10^6 [^3H]-cholesterol-loaded bone marrow-derived macrophages. Blood samples were collected at 6, 24 and 48 h after the injection of the cells. Liver, bile and the feces produced during the last 48 h were collected and flash-frozen until used. The amount of radiolabeled sterols was determined by scintillation. All studies involving mice were approved by the IACUC at Saint Louis University.
Similarly bile and plasma were extracted in the presence of internal standards for each lipid class. Id.
The inventor next tested whether silencing miR-33 could rescue mammals with statin induced ERIC or cholestasis. […] Finally, the inventor studied the mRNA levels of selected hepatic genes (FIG. 10G).

miR-33 [2] = assay: Reverse cholesterol transport with [3H]-cholesterol-loaded macrophages (Example 10); assay type: in vivo, C57BL/6 mice; settings: 5 mpk
Method: (A) Percentage of total injected dpm in the plasma of mice treated with scrambled or anti-miR-33 oligonucleotides (5 mpk, twice a week for 2 weeks), at 6, 24 at 48 h post-injection of [3H]-cholesterol-acLDL-loaded macrophages. *P<0.05 (unpaired T-test): **P<0.01 (unpaired T-test). (B) Percentage of total injected dpm in the liver of the same mice. (C) Percentage of total injected dpm in the be recovered from the gallbladder of the same mice. **P<0.01 (unpaired T-test). (D) Percentage of total injected dpm in the feces of the same mice. **P<0.01 (unpaired T-test).
(§2) Murine Studies. Male C57Bl/6J mice were obtained from Jackson Laboratories, and maintained in a 12 hour/12 hour light/dark cycle with unlimited access to chow and water. In examples 1-5, animals (n=6-8 per group) were infused with adenoviral vectors (2×10^9 pfu) via tail vein injection. Blood was collected 5 days post-infusion, and total cholesterol and HDL-cholesterol were assayed enzymatically with the Cholesterol E and HDL-cholesterol E kits from Waco Chemicals. In example 6-10 animals (8-10 week old, n=6 per group, unless noted otherwise) were infused via tail vein injection with adenoviral vectors (2×10^9 pfu) or antisense oligonucleotides (5 mpk, 2 consecutive days). Where indicated, mice were fed a 21% fat, 1% cholesterol, 0.5% cholate diet (Purina 5A8E). Tissues and bile were collected following overnight fasting. RCT experiments were performed as described 28. Briefly, mice were injected i.v. with oligonucleotides (5 mpk) twice for 2 weeks, and then injected i.p. with 1-1.5×10^6 [^3H]-cholesterol-loaded bone marrow-derived macrophages. Blood samples were collected at 6, 24 and 48 h after the injection of the cells. Liver, bile and the feces produced during the last 48 h were collected and flash-frozen until used. The amount of radiolabeled sterols was determined by scintillation. All studies involving mice were approved by the IACUC at Saint Louis University.
ANTI-miR-33 Treatment Results In Increased Reverse Cholesterol Transport. Biliary secretion is an essential component of the reverse cholesterol transport (RCT) pathway (Nijstad at al., (2011) Gastroenterology 140, 1043-1051) by which extrahepatic cholesterol is shuttled to the liver, secreted into bile and excreted through feces (Khera and Rader, (2010) Curr Atheroscler Rep 12, 73-81; Rader et al., (2009) J Lipid Res 50 Suppl, S189-194; Wang et al., (2007) J Clin Invest 117, 2216-2224; Wang and Rader, (2007) J Biol Chem 280, 8742-8747). An additional, liver-independent ROT pathway has been proposed that removes circulating cholesterol through the intestine directly into feces (van der Veen et al., (2009) J Biol Chem 284, 19211-19219). The inventor reasoned that the changes in be secretion observed following manipulation of miR-33 levels will result in altered RCT. […] Analysis of the bile recovered from the gallbladder confirmed that bile secretion is increased after suppression of miR-33 expression. […] Finally, the recovery of labeled sterols in the feces increased ˜2-fold in these same mice, compared to control animals (FIG. 8D).

miR-33 [3] = assay: Bile secretion in vivo after anti-miR-33 (Example 6); parameters: species or system mice; settings: 5 mpk i.v.
Excerpt: (A) Pooled bile recovered from the gallbladder of mice (n=5) injected with scrambled or anti-miR-33 oligonucleotides (5 mpk, i.v.) for 2 consecutive days. Mice were then kept for 7 days and fasted overnight before sample collection. (B) Levels of phosphatidylcholine (PC), cholesterol (chol) and bile acids present in pooled bile. (C) Relative expression of hepatic canalicular transporters in mice (n=5) following silencing of miR-33. Data are shown as mean±SD. *P<0.05 (unpaired T-test).
as §1, §2
Anti-miR-33 increases bile secretion in vivo. In an effort to understand the in vivo physiological importance of miR-33, the inventor injected mice with (5 mpk) of locked nucleic acid (LNA) scrambled sequence or LNA anti-miR-33 oligonucleotides 5-[…]-3′ (SEQ ID NO: 8) in saline (0.9% NaCl) via tail vein injection, at 5 mg/Kg (mpk) body weight. Mice were then kept with unlimited access to water and regular chow for a week. The amount of bile collected from the gallbladders of fasted mice receiving anti-miR-33 oligonucleotides was almost double of that collected from control mice (FIG. 6A). […] Next, the inventor tested the expression of several hepatocyte canalicular transporters that are known to mediate bile secretion.

[4] = system: C57BL/6 mice on 1% cholesterol, 0.5% cholate diet; assay: Simvastatin and cholate diet induced liver damage (Example 8); assay type: in vivo; settings: 50 mpk simvastatin vs saline
miR-33 [5] = assay: miR-33 silencing in vivo: hepatic ABCA1 and plasma HDL-cholesterol (Example 4); parameters: species or system C57BL/6 mice; settings: 5 mg/Kg/day for 3 consecutive days, vs scrambled
Method: as §1
Murine Studies. Male C57Bl/6J mice were obtained from Jackson Laboratories, and maintained in a 12 hour/12 hour light/dark cycle with unlimited access to chow and water. In examples 1-5, animals (n=6-8 per group) were infused with adenoviral vectors (2×10^9 pfu) via tail vein injection. […] In example 6-10 animals (8-10 week old, n=6 per group, unless noted otherwise) were infused via tail vein injection with adenoviral vectors (2×10^9 pfu) or antisense oligonucleotides (5 mpk, 2 consecutive days). […] The amount of radiolabeled sterols was determined by scintillation. […]
miR-33 modulation of physiological sterol homeostasis in vivo. To put these latter results in a physiological context, scrambled or anti-miR-33 oligonucleotides were injected into the tail veins of C57BL/6 mice (5 mg/Kg/day for 3 consecutive days), and plasma lipoprotein and cholesterol levels determined 12 days after the infusion.

[6] = 150 mpk simvastatin and cholate diet
[7] = mice that survived at the end of the experiment, vs scrambled

Compound: 5′-TGCAACTACAATGCA-3′ (LNA modifications, further chemistry not given here; listed as Homo sapiens) [LNA anti-miR-33 oligonucleotide, locked nucleic acid antisense oligonucleotide targeted to both miR-33 and miR-33 preRNA]
- survival (miR-33 [1]; 5 mpk i.v. two consecutive doses, then 150 mpk simvastatin and cholate diet, n=10): with one exception, all mice receiving anti-miR-33 oligonucleotides survived for at least a week
- appearance of livers (miR-33 [1]; [6]): appeared normal
- appearance of plasma (miR-33 [1]; [6]): appeared clear
- hepatic free fatty acids, diglycerides, triglycerides and bile acids (miR-33 [1]; 150 mpk simvastatin and cholate diet, vs control animals): marked decrease
- loss of body weight (miR-33 [1]; 150 mpk simvastatin and cholate diet, vs scrambled): minimal loss
- hepatic expression of Atp8b1 (miR-33 [1]; [7]): increased expression
- increased hepatic expression of Abcb11 or any other canalicular transporter (miR-33 [1]; [7]): not
- liver/body mass ratio (miR-33 [1]; vs control mice that succumbed to the diet and statin treatment): significantly lower
- bile secretion (bile recovered from the gallbladder) (miR-33 [2]): is increased
- changes in body, liver or feces mass (miR-33 [2]): did not observe changes
- amount of labeled cholesterol in circulation (miR-33 [2]; 6, 24, 48 h, vs control animals): increased
- amount of labeled sterols found in the liver (miR-33 [2]; 48 h): did not statistically differ
- contents of labeled biliary sterols (dpm/μL of bile), increase (miR-33 [2]; corrected for volume): 2 fold
- recovery of labeled sterols in the feces, increase (miR-33 [2]; feces of last 48 h, vs control animals): ~2 fold
- amount of bile collected from the gallbladders (miR-33 [3]; fasted mice after a week, vs control mice): almost double
- Abcb11 mRNA levels in liver (miR-33 [3]; vs scrambled): significantly increased
- Atp8b1 mRNA levels in liver (miR-33 [3]; vs scrambled): significantly increased
- concentration of phosphatidylcholine in bile (miR-33 [3]; vs scrambled): slightly elevated
- mRNA levels of other canalicular transporters (Abcg5, Abcg8, Abcb4) in liver (miR-33 [3]; vs scrambled): remained unchanged
- overall content of bile acids in pooled bile (miR-33 [3]; vs scrambled): did not change
- overall content of cholesterol in pooled bile (miR-33 [3]; vs scrambled): did not change

Compound: CCC(C)(C)C(=O)O[C@H]1C[C@@H](C)C=C2C=C[C@H](C)[C@H](CC[C@@H]3C[C@@H](O)CC(=O)O3)[C@H]21 [simvastatin]
- reduction of hepatic Abcb11 levels [4]: ~40%

Compound: anti-miR-33 oligonucleotides: anti-miR-33 oligonucleotides injected in Example 4; sequence and chemistry not stated there (antisense TGCAACTACAATGCA; LNA-modified, pattern not given here; listed as Homo sapiens)
- increase in HDL-cholesterol (miR-33 [5]; 12 days after infusion): 10-15%
- increase in hepatic ABCA1 mRNA levels (miR-33 [5]; tail vein): 2 fold
- increase in hepatic ABCA1 protein levels (miR-33 [5]; tail vein): 2 fold
